Results published in the supplement of paper PMC12350171.

Assays:
Bacteroides fragilis NT = assay: IC25 growth inhibition; higher = less potent
Summary of the method: (§1)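 Overnight monocultures grown in mGAM were moved into pre-reduced plates containing twofold drug dilutions, at a starting OD578 of 0.01 with 1% DMSO (or water). Plates were kept anaerobic and read hourly at OD578 in a plate reader, with at least three biological replicates. For each concentration, the median area under the growth curve was made monotonic, and IC25 was the lowest concentration whose median fell below a cutoff, reported as a tested interval. That cutoff was 0.75.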

[1] = system: Bacteroides thetaiotaomicron; assay: IC25 growth inhibition; higher = less potent
Summary of the method: as §1

Bacteroides uniformis = assay: IC25 growth inhibition; higher = less potent
Summary of the method: as §1

Bacteroides vulgatus = assay: IC25 growth inhibition; higher = less potent
Summary of the method: as §1

Clostridium bolteae = assay: IC25 growth inhibition; higher = less potent
Summary of the method: as §1

Clostridium perfringens = assay: IC25 growth inhibition; higher = less potent
Summary of the method: as §1

Clostridium ramosum = assay: IC25 growth inhibition; higher = less potent
Summary of the method: as §1

[2] = system: Clostridium saccharolyticum; assay: IC25 growth inhibition; higher = less potent
Summary of the method: as §1

Collinsella aerofaciens = assay: IC25 growth inhibition; higher = less potent
Summary of the method: as §1

Coprococcus comes = assay: IC25 growth inhibition; higher = less potent
Summary of the method: as §1

Dorea formicigenerans = assay: IC25 growth inhibition; higher = less potent
Summary of the method: as §1

Escherichia coli ED1a = assay: IC25 growth inhibition; higher = less potent
Summary of the method: as §1

Eubacterium rectale = assay: IC25 growth inhibition; higher = less potent
Summary of the method: as §1

[3] = system: Fusobacterium nucleatum subsp. Nucleatum; assay: IC25 growth inhibition; higher = less potent
Summary of the method: as §1

Parabacteroides merdae = assay: IC25 growth inhibition; higher = less potent
Summary of the method: as §1

Roseburia intestinalis = assay: IC25 growth inhibition; higher = less potent
Summary of the method: as §1

Ruminococcus gnavus = assay: IC25 growth inhibition; higher = less potent
Summary of the method: as §1

[4] = system: Salmonella enterica typhimurium; assay: IC25 growth inhibition; higher = less potent
Summary of the method: as §1

Shigella flexneri = assay: IC25 growth inhibition; higher = less potent
Summary of the method: as §1

[5] = system: Streptococcus parasanguinis; assay: IC25 growth inhibition; higher = less potent
Summary of the method: as §1

Streptococcus salivarius = assay: IC25 growth inhibition; higher = less potent
Summary of the method: as §1

Vibrio cholerae = assay: IC25 growth inhibition; higher = less potent
Summary of the method: as §1

[6] = system: Yersinia enterocolitica WA-314; assay: IC25 growth inhibition; higher = less potent
Summary of the method: as §1

[7] = system: Yersinia pseudotuberculosis; assay: IC25 growth inhibition; higher = less potent
Summary of the method: as §1

[8] = system: Com21 synthetic gut community; assay: community biomass OD578 after 24 h drug treatment relative to untreated (fraction of untreated control); higher = more community growth; details: community: Com21 (Com20 + E. coli ED1a)
Method: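 Com21 (Com20 plus E. coli ED1a) was treated with drug for 24 h under anaerobic conditions in mGAM. Community OD578 was then measured and normalised to untreated Com21; mean of 3 biological replicates.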

[9] = drug pretreatment concentration 10 µM
[10] = drug pretreatment concentration 20 µM
[11] = drug pretreatment concentration 40 µM
[12] = drug pretreatment concentration 80 µM
[13] = drug pretreatment concentration 160 µM
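For IC25 growth inhibition in this document: lowest concentration where monotonic median growth AUC falls below 0.75 of drug-free control.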

SMILES | IC25 growth inhibition (Bacteroides fragilis NT) [µM] | IC25 growth inhibition [1] [µM] | IC25 growth inhibition (Bacteroides uniformis) [µM] | IC25 growth inhibition (Bacteroides vulgatus) [µM] | IC25 growth inhibition (Clostridium bolteae) [µM] | IC25 growth inhibition (Clostridium perfringens) [µM] | IC25 growth inhibition (Clostridium ramosum) [µM] | IC25 growth inhibition [2] [µM] | IC25 growth inhibition (Collinsella aerofaciens) [µM] | IC25 growth inhibition (Coprococcus comes) [µM] | IC25 growth inhibition (Dorea formicigenerans) [µM] | IC25 growth inhibition (Escherichia coli ED1a) [µM] | IC25 growth inhibition (Eubacterium rectale) [µM] | IC25 growth inhibition [3] [µM] | IC25 growth inhibition (Parabacteroides merdae) [µM] | IC25 growth inhibition (Roseburia intestinalis) [µM] | IC25 growth inhibition (Ruminococcus gnavus) [µM] | IC25 growth inhibition [4] [µM] | IC25 growth inhibition (Shigella flexneri) [µM] | IC25 growth inhibition [5] [µM] | IC25 growth inhibition (Streptococcus salivarius) [µM] | IC25 growth inhibition (Vibrio cholerae) [µM] | IC25 growth inhibition [6] [µM] | IC25 growth inhibition [7] [µM] | community biomass OD578 [8, 9] | community biomass OD578 [8, 10] | community biomass OD578 [8, 11] | community biomass OD578 [8, 12] | community biomass OD578 [8, 13]
C[C@@H](O[C@H]1OCCN(Cc2n[nH]c(=O)[nH]2)[C@H]1c1ccc(F)cc1)c1cc(C(F)(F)F)cc(C(F)(F)F)c1 [Aprepitant] | > 160 | > 160 | > 160 | > 160 | > 160 | > 160 | > 160 | > 160 | > 80 | > 160 | > 160 | > 160 | > 160 | > 160 | > 160 | > 160 | > 160 | > 160 | > 160 | > 160 | > 160 | > 160 | > 160 | > 80 | 1 | 0.981 | 0.788 | 1.03 | 1.01
CC(CN1c2ccccc2Sc2ccccc21)N(C)C (configuration not stated) [Promethazine] | ≤ 160 | ≤ 80 | > 160 | ≤ 20 | > 160 | ≤ 160 | > 160 | > 160 | > 160 | ≤ 160 | ≤ 160 | > 160 | ≤ 160 | > 160 | ≤ 10 | ≤ 160 | ≤ 160 | > 160 | > 160 | > 160 | ≤ 160 | ≤ 160 | > 160 | ≤ 160 | 0.987 | 1.01 | 0.99 | 0.991 | 0.949
CCN(CC)C(C)CN1c2ccccc2Sc2ccccc21 (configuration not stated) [Ethopropazine] | ≤ 10 | ≤ 2.5 | ≤ 10 | < 1.25 | > 80 | > 80 | > 80 | > 80 | > 80 | > 80 | > 80 | > 160 | > 80 | > 80 | < 1.25 | ≤ 80 | > 80 | > 80 | > 80 | > 80 | > 80 | > 80 | > 80 | > 80 | 0.981 | 0.995 | 0.997 | 0.992 | 0.97
